Source: patent publication US8987256B2, “Oxo-heterocyclic substituted carboxylic acid derivatives and the use thereof” (Bayer Intellectual Property GmbH, priority 2008, dated 2015)

Legend:
[1] = molecular target: T1, Heme-free sGC (recombinant soluble guanylate cyclase) (Rattus norvegicus, UniProt P20595); assay: Stimulation of recombinant soluble guanylate cyclase (sGC) in vitro, heme-free enzyme; assay type: biochemical
T1 construct: made in house; host or cells: baculovirus/Sf9 insect cells
T1 sequence (P20595 1-619): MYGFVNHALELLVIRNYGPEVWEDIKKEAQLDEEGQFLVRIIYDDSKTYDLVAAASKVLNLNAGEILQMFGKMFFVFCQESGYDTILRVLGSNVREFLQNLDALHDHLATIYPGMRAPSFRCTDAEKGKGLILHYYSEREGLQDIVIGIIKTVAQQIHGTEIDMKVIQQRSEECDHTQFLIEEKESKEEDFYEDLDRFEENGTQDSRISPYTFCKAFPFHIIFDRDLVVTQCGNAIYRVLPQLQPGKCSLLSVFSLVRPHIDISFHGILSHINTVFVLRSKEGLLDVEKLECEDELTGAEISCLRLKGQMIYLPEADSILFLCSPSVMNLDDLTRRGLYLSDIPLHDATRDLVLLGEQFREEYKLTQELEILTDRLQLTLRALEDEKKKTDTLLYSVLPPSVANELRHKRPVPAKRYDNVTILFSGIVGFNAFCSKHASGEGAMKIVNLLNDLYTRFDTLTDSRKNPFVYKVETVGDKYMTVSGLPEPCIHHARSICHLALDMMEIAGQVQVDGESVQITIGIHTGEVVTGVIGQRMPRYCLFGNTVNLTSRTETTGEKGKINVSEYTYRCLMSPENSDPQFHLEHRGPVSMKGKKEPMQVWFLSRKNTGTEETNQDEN
T1 sequence (P19686 1-690 partner): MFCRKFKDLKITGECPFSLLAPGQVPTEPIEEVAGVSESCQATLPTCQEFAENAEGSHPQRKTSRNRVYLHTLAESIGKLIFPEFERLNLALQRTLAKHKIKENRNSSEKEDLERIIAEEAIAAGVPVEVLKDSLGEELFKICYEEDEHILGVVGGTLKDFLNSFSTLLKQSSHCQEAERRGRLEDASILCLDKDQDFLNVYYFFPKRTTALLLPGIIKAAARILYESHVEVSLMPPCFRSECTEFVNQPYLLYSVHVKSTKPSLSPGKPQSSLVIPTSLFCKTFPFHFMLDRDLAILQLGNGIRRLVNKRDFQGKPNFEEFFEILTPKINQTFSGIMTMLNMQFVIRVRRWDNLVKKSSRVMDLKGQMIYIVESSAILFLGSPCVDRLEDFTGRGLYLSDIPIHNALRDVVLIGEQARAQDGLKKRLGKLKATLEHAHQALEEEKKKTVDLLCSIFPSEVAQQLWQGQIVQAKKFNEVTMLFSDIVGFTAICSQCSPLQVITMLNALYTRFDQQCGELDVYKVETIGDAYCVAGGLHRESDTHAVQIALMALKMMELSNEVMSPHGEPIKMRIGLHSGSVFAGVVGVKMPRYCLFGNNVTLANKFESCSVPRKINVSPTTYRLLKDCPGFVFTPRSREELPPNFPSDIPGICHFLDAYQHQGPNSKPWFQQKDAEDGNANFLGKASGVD
Method: Investigations on the stimulation of recombinant soluble guanylate cyclase (sGC) by the compounds according to the invention with and without sodium nitroprusside, and with and without the heme-dependent sGC inhibitor 1H-1,2,4-oxadiazolo-(4,3a)-quinoxalin-1-one (ODQ) are carried out by the method described in detail in the following reference: M. Hoenicka, E. M. Becker, H. Apeler, T. Sirichoke, H. Schroeder, R. Gerzer and J.-P. Stasch, “Purified soluble guanylyl cyclase expressed in a baculovirus/Sf9 system: Stimulation by YC-1, nitric oxide, and carbon oxide”, J. Mol. Med. 77 (1999), 14-23. The heme-free guanylate cyclase is obtained by adding Tween 20 to the sample buffer (0.5% in the final concentration).
(§1) The activation of sGC by a test substance is reported as n-fold stimulation of the basal activity.

[2] = molecular target: T2, Heme-containing sGC (recombinant soluble guanylate cyclase) (Rattus norvegicus, UniProt P20595); assay: Stimulation of recombinant soluble guanylate cyclase (sGC) in vitro, heme-containing enzyme; assay type: biochemical
T2 construct: made in house; host or cells: baculovirus/Sf9 insect cells
T2 sequence (P20595 1-619): T1 sequence (P20595 1-619)
T2 sequence (P19686 1-690 partner): T1 sequence (P19686 1-690 partner)
Description: Hoenicka, E. M. Becker, H. Apeler, T. Sirichoke, H. Schroeder, R. Gerzer and J.-P. Stasch, “Purified soluble guanylyl cyclase expressed in a baculovirus/Sf9 system: Stimulation by YC-1, nitric oxide, and carbon oxide”, J. Mol. Med. 77 (1999), 14-23. The heme-free guanylate cyclase is obtained by adding Tween 20 to the sample buffer (0.5% in the final concentration).
as §1

[3] = molecular target: T3, recombinant guanylate cyclase reporter cell line (Rattus norvegicus, UniProt P20595); assay: sGC-activating activity in the CHO reporter cell in vitro; assay type: cell-based
T3 construct: expressed in transfected cells; host or cells: CHO reporter cell line
T3 sequence (P20595 1-619): T1 sequence (P20595 1-619)
T3 sequence (P19686 1-690 partner): T1 sequence (P19686 1-690 partner)
Method: The cellular action of the compounds according to the invention is determined at a recombinant guanylate cyclase reporter cell line, as described in F. Wunder et al., Anal. Biochem. 339, 104-112 (2005).

saphenous artery rings = assay: Vasorelaxant effect in vitro (phenylephrine-contracted artery rings); parameters: species or system Rabbits; details: Oryctolagus cuniculus, concentration reducing phenylephrine-induced contraction by 50%

O=C(O)CCc1cccc(NC(=O)C(c2ccc(CN3N=C(c4ccccc4)OCC3=O)cc2)C2CCCC2)c1 (single isomer, unassigned) [Example 103, 3-{3-[(Cyclopentyl{4-[(5-oxo-2-phenyl-5,6-dihydro-4H-1,3,4-oxadiazin-4-yl)methyl]phenyl}acetyl)amino]phenyl}propanoic acid]
Stimulation (n-fold) of heme-free sGC, basal ([1]; 0.1 μM Example 103): 1.1 n-fold
Stimulation (n-fold) of heme-free sGC, basal ([1]; 1 μM Example 103): 2.4 n-fold
Stimulation (n-fold) of heme-free sGC, basal ([1]; 10 μM Example 103): 13.9 n-fold
Stimulation (n-fold) of heme-free sGC, basal ([1]; 100 μM Example 103): 56.1 n-fold
Stimulation (n-fold) of heme-containing sGC, basal ([2]; 0.1 μM Example 103): 1.2 n-fold
Stimulation (n-fold) of heme-containing sGC, +0.1 μM DEA/NO ([2]; 0.1 μM Example 103): 6.9 n-fold
Stimulation (n-fold) of heme-containing sGC, +10 μM ODQ ([2]; 0.1 μM Example 103): 5.8 n-fold
Stimulation (n-fold) of heme-containing sGC, basal ([2]; 1 μM Example 103): 1.4 n-fold
Stimulation (n-fold) of heme-containing sGC, +0.1 μM DEA/NO ([2]; 1 μM Example 103): 7.8 n-fold
Stimulation (n-fold) of heme-containing sGC, +10 μM ODQ ([2]; 1 μM Example 103): 8.5 n-fold
Stimulation (n-fold) of heme-containing sGC, basal ([2]; 10 μM Example 103): 6.2 n-fold
Stimulation (n-fold) of heme-containing sGC, +0.1 μM DEA/NO ([2]; 10 μM Example 103): 13.5 n-fold
Stimulation (n-fold) of heme-containing sGC, +10 μM ODQ ([2]; 10 μM Example 103): 36.8 n-fold
Stimulation (n-fold) of heme-containing sGC, basal ([2]; 100 μM Example 103): 22.3 n-fold
Stimulation (n-fold) of heme-containing sGC, +0.1 μM DEA/NO ([2]; 100 μM Example 103): 35.6 n-fold
Stimulation (n-fold) of heme-containing sGC, +10 μM ODQ ([2]; 100 μM Example 103): 91.8 n-fold
Effect of combination with the NO donor DEA/NO on sGC stimulation ([2]; combination with DEA/NO): no synergistic effect
MEC (minimum effective concentration), sGC-activating activity in the CHO reporter cell [3]: 10 nM
IC50 (saphenous artery rings): 120 nM
